From patent publication US6617319B2, “Methods of use for 2-deoxy ecdysterone” (Council of Science and Industrial Research, priority 2000, dated 2003)
“And” between values parts separate entries of the source, which are not always exact repeats. Equal entries are not always repeated.

Assays:
[1] = radiolabelled compound injected into human volunteers; within 5 hours; cited from earlier work
guinea pig uterus = assay type: cell-based
From the text: A female virgin guinea pig that was in oestrous and weighing around 400-500 gm was used for the test. The animal was killed by a stunning blow on the head. The abdomen was immediately cut open. The uterus was dissected out and placed in a petri plate containing aerated De Jalon's solution (M. N Ghosh, in fundamentals of Experimental Pharmacology, 1984, second edition, Scientific book agency, Calcutta). The uterus was freed from fat and the two uterine horns were separated by cutting the lower end. Only one horn was used for the experiment. Two small loops of thread were made at each end of the uterus and kept in a tissue bath of 10 ml capacity containing aerated De Jalon's solution. The lower end was tied to the tissue holder and the upper end to the writing lever. The lever was balanced to provide a tension of 1 g with plasticene. The tissue was left in the bath for ½ hr for stabilisation before starting the experiment and the physiological solution (De Jalon's solution) was renewed every 10 minutes. This example illustrates the procedure used for the preparation of the guinea pig uterus for testing the oxytocic property of the pure white solid, 2-deoxy ecdysterone.
After stabilisation, 2-3 doses of oxytocin (Parke Davis Ltd, Hyderabad) were added as standard to the physiological solution, the dose depending on the amplitude of contraction to obtain uniform contractions. The extract was then added to the bath (50 & 250 μg/ml) and allowed to act for one minute. If a contraction was observed during that one-minute period, extract was considered to be oxytocin-like and having oxytocic property. After every contraction, the tissue was immediately washed twice with the physiological solution and relaxed for 10 minutes. The same procedure was followed for the crude extract, fractions and the purified white solid, identified as 2-deoxy ecdysterone.
The oxytocic activity of the crude, fractions and the pure compound was tested on the guinea pig uterus based on its ability to contract the relaxed uterus. The tissue was spiked with a standard oxytocic agent which induces contraction of the tissue. The efficacy of the testing agent was measured by its ability to contract the uterus by comparing the height of contraction with the standard oxytocin (Table 1). This example illustrates the procedure used for testing the crude extract and the detailed procedure followed.

Molecule	Radioactivity excreted in the urine [1]	% response compared to standard PGF2α (guinea pig uterus)	% response compared to standard oxytocin (guinea pig uterus)	Inducing contractions in the guinea pig uterus (guinea pig uterus)	Potency compared with standard oxytocin and PGF2α (guinea pig uterus)
CCCCC[C@H](O)/C=C/[C@@H]1[C@@H](C/C=C\CCCC(=O)O)[C@@H](O)C[C@H]1O [PGF2α]	around 90%	–	–	–	–
2-deoxy ecdysterone	–	69.4% and 82.3% and 114.1%	80.8% and 92.3% and 118.0%	effective	more potent than the standard oxytocin and PGF2α
CCCCC[C@H](O)/C=C/[C@H]1[C@H](O)CC(=O)[C@@H]1C/C=C\CCCC(=O)O [PGE2]	about 50%	–	–	–	–
